The target in one assay is KRAS^G12C (Homo sapiens, UniProt P01116, G12C). Also noted: endogenous in NCI-H358; KRAS degradation by capillary electrophoresis (Wes) immunodetection. The settings on record: NCI-H358; 6 h; degrader. The protocol: Protein Detection by Capillary Electrophoresis Cells (50 000) were seeded the day before treatment into 96-well clear-flat bottom plates and incubated overnight (37 °C, humidified tissue culture incubator, 5% CO2). […] At the end of the incubation, medium was removed, cells washed with ice cold PBS, PBS removed and 50 µL lysis buffer (Meso Scale Discovery #R60TX-2) supplemented with 1:100 protease inhibitor solution, 1:100 phosphatase inhibitor I, 1:100 phosphatase inhibitor II (Meso Scale Discovery #R70AA-1), 0.5 µL/mL Benzonase (Novagen #70664-3) and 10 mM dithiothreitol added to each well. Plates with lysis buffer were immediately transferred to -80 °C freezer for at least 2 hours and then thawed on ice. Lysates were transferred to a 96 well V-bottom plate and insoluble debris was pelleted by centrifugation for 20 min. at 4 000 rpm. 40 µL of the supernatant were transferred to a fresh Eppendorf PCR plate. Analysis of protein levels was conducted using the Wes System, ProteinSimple (https://www.bio-techne.com/) as specified by the manufacturer. Briefly, Wes Master Mix (12-230 kDa WES Separation Module, 8 × 25 capillary cartridges, ProteinSimple #SM-W004) and molecular weight markers were prepared as specified in the manufacturer’s recommendations. To detect primary antibodies, anti-rabbit (Protein Simple #DM-001) or anti-mouse (Protein Simple #DM-002) detection modules were used. […]

For assay [1], the target named is T1, KRAS^WT (Homo sapiens, UniProt P01116).
T1 construct: endogenous wild type
Also noted: KRAS degradation by capillary electrophoresis immunodetection. The conditions noted are these: read-out: DC50 24 h HEK293. The protocol:
Protein Detection by Capillary Electrophoresis Cells (50 000) were seeded the day before treatment into 96-well clear-flat bottom plates and incubated overnight (37 °C, humidified tissue culture incubator, 5% CO2). Compounds were added from DMSO stock solution using a digital dispenser and cells are incubated at 37 °C as specified (24 hours for KRAS degradation, 6 hours for determination of pERK levels). At the end of the incubation, medium was removed, cells washed with ice cold PBS, PBS removed and 50 µL lysis buffer (Meso Scale Discovery #R60TX-2) supplemented with 1:100 protease inhibitor solution, 1:100 phosphatase inhibitor I, 1:100 phosphatase inhibitor II (Meso Scale Discovery #R70AA-1), 0.5 µL/mL Benzonase (Novagen #70664-3) and 10 mM dithiothreitol added to each well. Plates with lysis buffer were immediately transferred to -80 °C freezer for at least 2 hours and then thawed on ice. Lysates were transferred to a 96 well V-bottom plate and insoluble debris was pelleted by centrifugation for 20 min. at 4 000 rpm. 40 µL of the supernatant were transferred to a fresh Eppendorf PCR plate. Analysis of protein levels was conducted using the Wes System, ProteinSimple (https://www.bio-techne.com/) as specified by the manufacturer. […]

A further assay deals with KRAS^G12V (Homo sapiens, UniProt P01116, G12V). Details: endogenous in SW620; KRAS degradation by capillary electrophoresis (Wes) immunodetection. The conditions noted are these: SW620; 6 h; degrader.
The target in assay [2] is T1, KRAS^WT. Also noted: KRAS degradation by capillary electrophoresis immunodetection. The settings on record: read-out: DC50 24 h A375.
Assay [3] concerns the target T2, VCB:KRAS ternary complex partners (Homo sapiens, UniProt P01116+P40337, P01116:C118S/P01116:G12D).
T2 construct: VCB (Avi-tagged, biotinylated for SPR) plus KRAS 1-169 C118S GDP; E. coli, His6 tags removed; with Elongin-C; Elongin-B
The assay can be described thus: biochemical. Also noted: SPR binary and ternary complex binding affinity and kinetics. The conditions noted are these: SPR; for kon: read-out: SPR VCB+KRAS^G12D kon [1/(M s)]. The source says:
With the objective of identifying molecules that potently degrade multiple KRAS mutants we next sought to employ structure-based design using the solved ternary co-crystal structure of compound 3 to improve ternary complex stability and intracellular VHL engagement. […] Analysis of the VCB:compound 3:KRAS^G12V co-crystal structure (Fig. 1H) highlighted an opportunity to enhance interactions within the ternary complex by improving π-stacking between the exit vector amide of the VHL ligand and Tyr112. We therefore switched the amide for an isoxazole, which has been previously reported to improve VCB affinity in this position in other contexts ([22]), yielding compound 4 (Fig. 2A). A ternary complex co-crystal structure of VCB:compound 4:KRAS^G12V (PDB 8QW7) confirmed a consistent overall binding mode to that observed for compound 3 (RMSD = 0.72 Å), with compound 4 able to engage in π-stacking interaction between the isoxazole and Tyr112 of VCB as designed (Fig. 2B). […] FP, SPR and cellular target engagement studies support a minor improvement in binary VHL engagement for compound 4, with moderate cooperativity retained (fig. S2A-C, table S1). […] We then investigated the impact of these structural changes on degradation kinetics in live HiBiT-tagged GP5d cells (fig. S3A-D). […] Aiming to measure ternary complex stability, we noted that the FP assay reached the limits of quantification due to ternary KD approaching that of the assay probe (fig. S8B).

Where two headings read alike, the source gives them in different places.

What is called DC50 is the midpoint of the concentration-degradation curve. Usually Kd stands for the constant that tells how readily two partners part at equilibrium. Low values mean tighter binding, high ones weaker binding.

T2 sequence (Q15370 1-104): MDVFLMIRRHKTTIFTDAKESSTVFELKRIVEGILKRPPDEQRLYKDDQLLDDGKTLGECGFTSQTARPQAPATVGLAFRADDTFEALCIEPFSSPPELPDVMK
T2 sequence (P01116 1-169 G12D/C118S): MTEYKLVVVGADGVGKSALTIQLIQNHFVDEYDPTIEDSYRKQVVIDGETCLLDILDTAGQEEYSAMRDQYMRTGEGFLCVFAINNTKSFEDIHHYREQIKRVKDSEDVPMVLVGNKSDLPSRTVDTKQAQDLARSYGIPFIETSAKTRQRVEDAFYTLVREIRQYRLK
T2 sequence (Q15369 17-112, further chain): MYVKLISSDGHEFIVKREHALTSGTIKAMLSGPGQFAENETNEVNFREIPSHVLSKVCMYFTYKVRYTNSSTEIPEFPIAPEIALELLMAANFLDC
T2 sequence (P40337 54-213): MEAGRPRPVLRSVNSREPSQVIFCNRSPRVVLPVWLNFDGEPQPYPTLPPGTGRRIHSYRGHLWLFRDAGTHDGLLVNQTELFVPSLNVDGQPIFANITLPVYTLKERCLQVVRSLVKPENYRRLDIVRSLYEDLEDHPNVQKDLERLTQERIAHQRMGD
T1 sequence (P01116 whole entry): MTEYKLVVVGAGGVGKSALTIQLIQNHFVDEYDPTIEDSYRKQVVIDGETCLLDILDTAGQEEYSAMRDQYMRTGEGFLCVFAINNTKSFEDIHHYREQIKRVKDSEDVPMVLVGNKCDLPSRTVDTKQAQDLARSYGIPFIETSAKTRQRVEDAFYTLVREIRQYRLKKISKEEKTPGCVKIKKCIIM
Chain of KRAS^G12V (P01116 whole entry G12V): as the sequence (P01116 whole entry) above, with G12V counted along it
Chain of KRAS^G12C (P01116 whole entry G12C): as the sequence (P01116 whole entry) above, with G12C counted along it

In the case of `Cc1ncsc1-c1ccc(CNC(=O)[C@@H]2C[C@@H](O)CN2C(=O)[C@@H](c2cc(OCCCCN3CCCN(c4nccc(-c5noc([C@@]6(C)CCCc7sc(N)c(C#N)c76)n5)n4)[C@@H](C)C3)no2)C(C)C)cc1` [compound 4], the DC50 at KRAS^G12C came to 19.6 nM; on KRAS^WT [1] it was 86.7 nM; at KRAS^G12V it was 24 nM; at KRAS^WT [2], 33.4 nM.

For the compound `Cc1ncsc1-c1ccc(CNC(=O)[C@@H]2C[C@@H](O)CN2C(=O)[C@@H](NC(=O)CCCCCN2CCCN(c3nccc(-c4noc([C@@]5(C)CCCc6sc(N)c(C#N)c65)n4)n3)[C@@H](C)C2)C(C)(C)C)cc1` [compound 3], the DC50 at KRAS^G12C was 159 nM; at KRAS^WT [1], > 1000 nM; at KRAS^G12V, 159 nM; at KRAS^WT [2], 455 nM. Further, in assay [3], the Kd was 30 ± 6 nM. For the same compound, the kon in assay [3] stood at 242000 M⁻¹ s⁻¹.

As for `Cc1ncsc1-c1ccc(CNC(=O)[C@@H]2C[C@@H](O)CN2C(=O)[C@@H](NC(=O)COCCCN2CCCN(c3nccc(-c4noc([C@@]5(C)CCCc6sc(N)c(C#N)c65)n4)n3)[C@@H](C)C2)C(C)(C)C)cc1` [compound 2], the kon in assay [3] amounted to 224000 M⁻¹ s⁻¹.

These data come from doi:10.1101/2023.10.24.563163v2, “Targeting cancer with small molecule pan-KRAS degraders” (biorxiv, 2024).
